Among the test systems are COLO 205 colon; HT29 colon; K-562 leukemia; RPMI-8226 leukemia; SNB-19 CNS; UACC-62 melanoma; OVCAR-5 ovarian; SN12C renal; SF-268 CNS; TK-10 renal.
Common to all, as to assay: NCI tumour cell line growth inhibition, 48 h

Molecules are shown by their SMILES.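 Each compound was tested at five concentrations against cells in 96-well plates for 48 hours. Here, GI50 denotes the concentration required for 50% inhibition of growth. Definition used: TGI = concentration required for complete inhibition of growth.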

Turning to `NCCOc1ncccc1/C=C1\c2ccccc2-c2ccc([N+](=O)[O-])cc21`, the GI50 in the test with COLO 205 colon is 0.137 µM; in the test on HT29 colon, 0.0898 µM; in the test with K-562 leukemia, 0.0337 µM; with RPMI-8226 leukemia, 0.0383 µM; in the test with SNB-19 CNS, 0.0356 µM; with UACC-62 melanoma, 0.0784 µM. For the same compound, the GI50 in the test with OVCAR-5 ovarian was 0.211 µM; in the test with SN12C renal, 0.0284 µM; in the test with SF-268 CNS, 0.0827 µM; in the test with TK-10 renal, 0.126 µM. The TGI in the test with COLO 205 colon was found to be 0.343 µM; in the test with HT29 colon it was 1.04 µM; in the test with K-562 leukemia, 1.23 µM; in the test with RPMI-8226 leukemia, 0.317 µM; in the test on SNB-19 CNS it was 1.04 µM; in the test with UACC-62 melanoma it was 0.386 µM. The TGI was 0.68 µM in the test on OVCAR-5 ovarian, 0.178 µM in the test with SN12C renal, 0.619 µM in the test with SF-268 CNS and 0.282 µM in the test on TK-10 renal.
For the compound `Cc1noc(C)c1-c1cnc2c(-c3ccc(C(=O)O)cc3)cn([C@@H](C)c3ccccn3)c2c1`, the GI50 in the test on COLO 205 colon is 0.413 µM; in the test on HT29 colon it was 0.386 µM; in the test on K-562 leukemia it was 0.964 µM; in the test with RPMI-8226 leukemia, 0.155 µM; in the test with SNB-19 CNS, 1.58 µM; in the test on UACC-62 melanoma, 0.0954 µM. The GI50 was 4.22 µM with OVCAR-5 ovarian, 2.99 µM with SN12C renal, 9.04 µM with SF-268 CNS and 0.405 µM in the test on TK-10 renal. Further, the TGI in the test on COLO 205 colon was above 100 µM; in the test on HT29 colon, above 100 µM; in the test on K-562 leukemia it was above 100 µM; in the test on RPMI-8226 leukemia, above 100 µM; in the test with SNB-19 CNS it was above 100 µM; in the test with UACC-62 melanoma it was 20.2 µM. The TGI in the test with OVCAR-5 ovarian, in the test on SN12C renal, in the test with SF-268 CNS and in the test on TK-10 renal was above 100 µM in each case.
As to `COc1ccc2c(c1)O/C(=C\c1cccc(OCC(=O)Nc3nc(C)c(C)s3)c1)C2=O`, the GI50 in the test on COLO 205 colon is 22.3 µM; in the test with HT29 colon, 2.73 µM; in the test on K-562 leukemia, 2.65 µM; in the test with RPMI-8226 leukemia, 1.66 µM; with SNB-19 CNS, 27.5 µM; in the test on UACC-62 melanoma, 16.5 µM. Moreover, the GI50 in the test with OVCAR-5 ovarian is 3.79 µM; in the test on SN12C renal, 2 µM; with SF-268 CNS, 0.638 µM; with TK-10 renal, 5.41 µM. For the same compound, the TGI in the test with COLO 205 colon was above 100 µM; in the test on HT29 colon it was above 21 µM; in the test on RPMI-8226 leukemia, 3.97 µM; in the test with SNB-19 CNS it was above 100 µM; in the test on UACC-62 melanoma it was above 100 µM; in the test with OVCAR-5 ovarian it was above 26.3 µM. Moreover, the TGI was above 100 µM in the test on SN12C renal, 1.4 µM with SF-268 CNS and above 100 µM in the test on TK-10 renal.
For the compound `COC(=O)CCC(=O)N1CC1C` (centres undefined), the TGI with COLO 205 colon, with HT29 colon, with K-562 leukemia, in the test on RPMI-8226 leukemia, in the test with SNB-19 CNS and with UACC-62 melanoma was above 100 µM throughout. The TGI in the test with OVCAR-5 ovarian, in the test on SN12C renal, in the test with SF-268 CNS and in the test with TK-10 renal was above 100 µM in each case.
Turning to `CC(C)C(=S)N(C)O`, the TGI with COLO 205 colon was above 100 µM; in the test on HT29 colon, 13.2 µM; in the test with K-562 leukemia it was above 100 µM; in the test on RPMI-8226 leukemia, above 52.6 µM; in the test with SNB-19 CNS, above 100 µM; in the test with UACC-62 melanoma, above 61.9 µM. Also, the TGI is above 100 µM in the test on OVCAR-5 ovarian, above 100 µM with SN12C renal, above 100 µM with SF-268 CNS and above 91.4 µM in the test on TK-10 renal.
In the case of `COc1cc(-c2cc3ncccc3c3[nH]c(=O)c4cccnc4c23)cc(OC)c1OC`, the GI50 in the test on COLO 205 colon was 0.538 µM; in the test on HT29 colon it was 0.397 µM; with K-562 leukemia, 0.392 µM; with RPMI-8226 leukemia it was 1.3 µM; with SNB-19 CNS, 0.981 µM; with UACC-62 melanoma it was 0.496 µM. Further, the GI50 in the test on OVCAR-5 ovarian was above 100 µM; in the test with SN12C renal it was 14.3 µM; in the test with SF-268 CNS it was 2.16 µM; in the test with TK-10 renal, 17.2 µM. The TGI with COLO 205 colon was above 100 µM; with HT29 colon, above 100 µM; in the test with K-562 leukemia it was above 100 µM; in the test with RPMI-8226 leukemia it was 47.5 µM; in the test with SNB-19 CNS, above 100 µM; in the test with UACC-62 melanoma it was 30.3 µM. In addition, the TGI in the test on OVCAR-5 ovarian, with SN12C renal, in the test with SF-268 CNS and in the test on TK-10 renal was above 100 µM throughout.
In the case of `COc1cc(CN(c2ccc(C)cc2)C2OC(=O)c3ccccc32)cc(OC)c1OC` (centres undefined), the GI50 in the test with COLO 205 colon is 0.351 µM; in the test with HT29 colon, 0.355 µM; in the test with K-562 leukemia it was 0.365 µM; with RPMI-8226 leukemia, 0.455 µM; with SNB-19 CNS, 0.689 µM; in the test on UACC-62 melanoma, 0.582 µM. Further, the GI50 in the test with OVCAR-5 ovarian was 1.58 µM; in the test with SN12C renal, 0.854 µM; in the test on SF-268 CNS it was 1.97 µM; in the test on TK-10 renal, 2.51 µM. In addition, the TGI was 1.3 µM in the test on COLO 205 colon; above 100 µM with HT29 colon; above 100 µM with K-562 leukemia; above 100 µM in the test with RPMI-8226 leukemia; above 100 µM with SNB-19 CNS; above 100 µM in the test with UACC-62 melanoma. For the same compound, the TGI with OVCAR-5 ovarian, with SN12C renal, in the test with SF-268 CNS and in the test on TK-10 renal was above 100 µM each time.
As for `O=C1C=C(Nc2ccc(S(=O)(=O)Nc3ncccn3)cc2)c2ccccc2C1=O`, the TGI is 39.4 µM in the test with COLO 205 colon; 45 µM in the test with HT29 colon; 49.4 µM in the test on K-562 leukemia; 97.2 µM in the test with RPMI-8226 leukemia; 90.2 µM in the test with SNB-19 CNS; 32.9 µM in the test with UACC-62 melanoma. For the same compound, the TGI in the test on OVCAR-5 ovarian was 34.4 µM; in the test with SN12C renal, 35.9 µM; with SF-268 CNS, 59.7 µM; in the test with TK-10 renal, above 100 µM.
Regarding `CCOC(=O)C#Cc1c(C(=O)OCC)nnn1[C@@H]1O[C@H](CO)[C@H]2OC3(CCCCC3)O[C@H]21`, the GI50 in the test on COLO 205 colon is 1.98 µM; with HT29 colon it was 1.93 µM; in the test on K-562 leukemia, 1.67 µM; in the test on RPMI-8226 leukemia, 3.07 µM; with SNB-19 CNS, 18.3 µM; with UACC-62 melanoma, 2.02 µM. The GI50 is 8.09 µM in the test on OVCAR-5 ovarian, 3.11 µM in the test with SN12C renal, 14.3 µM in the test with SF-268 CNS and 1.79 µM in the test on TK-10 renal. Also, the TGI in the test with COLO 205 colon came out at 4.06 µM; with HT29 colon, 3.77 µM; in the test with K-562 leukemia, 7.97 µM; in the test with RPMI-8226 leukemia it was 7.97 µM; in the test with SNB-19 CNS, 40.5 µM; in the test with UACC-62 melanoma it was 4.55 µM. Further, the TGI in the test with OVCAR-5 ovarian came to 22.6 µM; in the test on SN12C renal it was 9.37 µM; with SF-268 CNS it was 34.6 µM; in the test on TK-10 renal it was 3.28 µM.

(Values after PubChem BioAssay (NCI).)
